# Measurements: publication PMC4415586 (European journal of medicinal chemistry, 2014)
# Experiments:
# PARP-2 = PARP-2 (Homo sapiens, UniProt Q9UGN5); details: 20 nM, reference compound
# PARP-14 = PARP-14 (Homo sapiens, UniProt Q460N5); assay: PARP-14 enzymatic assay; details: 100 μM
# TNKS-1 = target: T1, TNKS-1 (Homo sapiens, UniProt O95271); assay: TNKS-1 autoribosylation assay; details: for inhibition at 1 µM: read-out: % of inhibition TNKS-1, 1 μM, duplicate; for % of inhibition TNKS-1: 1 μM, duplicate
# T1 sequence (O95271 1-1327): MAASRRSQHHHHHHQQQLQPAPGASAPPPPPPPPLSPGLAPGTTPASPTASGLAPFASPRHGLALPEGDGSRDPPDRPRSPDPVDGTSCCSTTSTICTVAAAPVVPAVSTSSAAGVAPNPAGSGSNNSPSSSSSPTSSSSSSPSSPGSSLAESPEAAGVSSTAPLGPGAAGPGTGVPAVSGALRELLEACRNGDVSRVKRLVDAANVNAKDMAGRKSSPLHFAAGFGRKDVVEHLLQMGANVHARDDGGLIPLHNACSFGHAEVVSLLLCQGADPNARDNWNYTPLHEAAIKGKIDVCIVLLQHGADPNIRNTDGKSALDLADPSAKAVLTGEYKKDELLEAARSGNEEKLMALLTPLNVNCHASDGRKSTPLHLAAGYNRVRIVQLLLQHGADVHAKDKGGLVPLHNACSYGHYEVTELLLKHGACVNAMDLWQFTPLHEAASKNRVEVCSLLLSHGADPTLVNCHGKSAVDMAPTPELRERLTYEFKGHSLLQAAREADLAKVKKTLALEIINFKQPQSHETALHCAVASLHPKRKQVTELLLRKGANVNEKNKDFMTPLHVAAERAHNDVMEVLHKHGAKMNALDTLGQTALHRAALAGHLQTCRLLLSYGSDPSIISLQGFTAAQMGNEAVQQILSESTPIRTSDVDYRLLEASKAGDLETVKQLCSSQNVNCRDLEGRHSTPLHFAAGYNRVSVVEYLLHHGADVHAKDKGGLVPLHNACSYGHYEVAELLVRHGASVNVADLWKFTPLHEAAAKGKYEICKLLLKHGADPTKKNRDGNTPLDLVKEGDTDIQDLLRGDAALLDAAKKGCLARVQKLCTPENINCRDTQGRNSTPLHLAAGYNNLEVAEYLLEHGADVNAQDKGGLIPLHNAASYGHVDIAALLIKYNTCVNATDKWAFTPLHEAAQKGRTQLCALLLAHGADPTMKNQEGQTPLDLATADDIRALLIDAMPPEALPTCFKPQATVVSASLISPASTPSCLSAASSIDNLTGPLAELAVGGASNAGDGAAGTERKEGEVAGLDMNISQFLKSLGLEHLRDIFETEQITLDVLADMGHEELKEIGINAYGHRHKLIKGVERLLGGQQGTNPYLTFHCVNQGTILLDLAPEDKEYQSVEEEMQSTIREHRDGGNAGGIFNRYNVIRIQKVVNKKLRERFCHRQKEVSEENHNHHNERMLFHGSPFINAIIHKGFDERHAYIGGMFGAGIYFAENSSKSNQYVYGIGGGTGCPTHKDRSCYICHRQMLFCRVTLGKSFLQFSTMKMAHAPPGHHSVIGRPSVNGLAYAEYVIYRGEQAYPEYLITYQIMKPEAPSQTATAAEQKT
# TNKS-2 = target: T2, TNKS-2 (Homo sapiens, UniProt Q9H2K2); assay: TNKS-2 autoribosylation assay; details: for inhibition at 1 µM: read-out: % of inhibition TNKS-2, 1 μM, duplicate
# T2 sequence (Q9H2K2 1-1166): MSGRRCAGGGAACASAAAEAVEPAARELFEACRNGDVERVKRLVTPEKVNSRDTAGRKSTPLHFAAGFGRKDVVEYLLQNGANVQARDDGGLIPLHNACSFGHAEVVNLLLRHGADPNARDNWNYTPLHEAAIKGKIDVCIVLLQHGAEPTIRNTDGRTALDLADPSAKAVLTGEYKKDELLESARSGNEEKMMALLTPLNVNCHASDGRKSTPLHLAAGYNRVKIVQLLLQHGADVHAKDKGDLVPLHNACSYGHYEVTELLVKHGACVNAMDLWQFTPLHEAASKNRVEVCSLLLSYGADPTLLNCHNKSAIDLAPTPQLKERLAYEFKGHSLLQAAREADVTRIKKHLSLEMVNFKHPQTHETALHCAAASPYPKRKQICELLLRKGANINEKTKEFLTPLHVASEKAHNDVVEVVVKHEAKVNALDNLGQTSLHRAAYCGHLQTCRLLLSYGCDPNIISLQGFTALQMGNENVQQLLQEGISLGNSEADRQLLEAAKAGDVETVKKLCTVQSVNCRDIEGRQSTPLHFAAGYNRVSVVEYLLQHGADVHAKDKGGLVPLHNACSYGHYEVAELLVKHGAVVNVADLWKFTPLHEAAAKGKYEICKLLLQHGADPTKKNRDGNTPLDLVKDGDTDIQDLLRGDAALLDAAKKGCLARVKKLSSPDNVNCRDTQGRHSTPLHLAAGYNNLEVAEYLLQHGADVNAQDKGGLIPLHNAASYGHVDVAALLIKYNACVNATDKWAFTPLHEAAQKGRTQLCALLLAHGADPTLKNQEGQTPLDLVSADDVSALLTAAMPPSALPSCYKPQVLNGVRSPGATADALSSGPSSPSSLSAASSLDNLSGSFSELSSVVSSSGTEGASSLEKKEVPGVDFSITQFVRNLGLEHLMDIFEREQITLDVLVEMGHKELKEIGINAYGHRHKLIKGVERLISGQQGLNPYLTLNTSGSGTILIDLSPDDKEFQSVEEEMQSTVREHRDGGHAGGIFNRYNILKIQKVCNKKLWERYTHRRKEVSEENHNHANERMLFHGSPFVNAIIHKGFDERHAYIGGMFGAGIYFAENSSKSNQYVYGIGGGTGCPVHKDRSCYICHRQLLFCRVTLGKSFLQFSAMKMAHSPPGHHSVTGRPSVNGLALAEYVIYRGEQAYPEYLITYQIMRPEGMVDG
# [1] = test system: TCF transcriptional activity (Wnt) in DLD-1 colorectal cancer cells; assay: TCF-luciferase reporter; format: cell-based; details: DLD-1 cells, 1 μM, 24 h
# DLD-1 cancer cells = assay: Colony growth assay, DLD-1; format: cell-based; details: 1, 5 and 10 μM, treated daily, 10 days
# [2] = test system: RKO colorectal cancer cell line; assay: Cell growth inhibition, Wnt-negative RKO; format: cell-based; details: negative control cell line
# [3] = test system: PARP enzymes (1–3, 6–8, 10–12, 14); assay: PARP selectivity panel; details: 10 μM, duplicate
# PARP-14, sequence (Q460N5 whole entry): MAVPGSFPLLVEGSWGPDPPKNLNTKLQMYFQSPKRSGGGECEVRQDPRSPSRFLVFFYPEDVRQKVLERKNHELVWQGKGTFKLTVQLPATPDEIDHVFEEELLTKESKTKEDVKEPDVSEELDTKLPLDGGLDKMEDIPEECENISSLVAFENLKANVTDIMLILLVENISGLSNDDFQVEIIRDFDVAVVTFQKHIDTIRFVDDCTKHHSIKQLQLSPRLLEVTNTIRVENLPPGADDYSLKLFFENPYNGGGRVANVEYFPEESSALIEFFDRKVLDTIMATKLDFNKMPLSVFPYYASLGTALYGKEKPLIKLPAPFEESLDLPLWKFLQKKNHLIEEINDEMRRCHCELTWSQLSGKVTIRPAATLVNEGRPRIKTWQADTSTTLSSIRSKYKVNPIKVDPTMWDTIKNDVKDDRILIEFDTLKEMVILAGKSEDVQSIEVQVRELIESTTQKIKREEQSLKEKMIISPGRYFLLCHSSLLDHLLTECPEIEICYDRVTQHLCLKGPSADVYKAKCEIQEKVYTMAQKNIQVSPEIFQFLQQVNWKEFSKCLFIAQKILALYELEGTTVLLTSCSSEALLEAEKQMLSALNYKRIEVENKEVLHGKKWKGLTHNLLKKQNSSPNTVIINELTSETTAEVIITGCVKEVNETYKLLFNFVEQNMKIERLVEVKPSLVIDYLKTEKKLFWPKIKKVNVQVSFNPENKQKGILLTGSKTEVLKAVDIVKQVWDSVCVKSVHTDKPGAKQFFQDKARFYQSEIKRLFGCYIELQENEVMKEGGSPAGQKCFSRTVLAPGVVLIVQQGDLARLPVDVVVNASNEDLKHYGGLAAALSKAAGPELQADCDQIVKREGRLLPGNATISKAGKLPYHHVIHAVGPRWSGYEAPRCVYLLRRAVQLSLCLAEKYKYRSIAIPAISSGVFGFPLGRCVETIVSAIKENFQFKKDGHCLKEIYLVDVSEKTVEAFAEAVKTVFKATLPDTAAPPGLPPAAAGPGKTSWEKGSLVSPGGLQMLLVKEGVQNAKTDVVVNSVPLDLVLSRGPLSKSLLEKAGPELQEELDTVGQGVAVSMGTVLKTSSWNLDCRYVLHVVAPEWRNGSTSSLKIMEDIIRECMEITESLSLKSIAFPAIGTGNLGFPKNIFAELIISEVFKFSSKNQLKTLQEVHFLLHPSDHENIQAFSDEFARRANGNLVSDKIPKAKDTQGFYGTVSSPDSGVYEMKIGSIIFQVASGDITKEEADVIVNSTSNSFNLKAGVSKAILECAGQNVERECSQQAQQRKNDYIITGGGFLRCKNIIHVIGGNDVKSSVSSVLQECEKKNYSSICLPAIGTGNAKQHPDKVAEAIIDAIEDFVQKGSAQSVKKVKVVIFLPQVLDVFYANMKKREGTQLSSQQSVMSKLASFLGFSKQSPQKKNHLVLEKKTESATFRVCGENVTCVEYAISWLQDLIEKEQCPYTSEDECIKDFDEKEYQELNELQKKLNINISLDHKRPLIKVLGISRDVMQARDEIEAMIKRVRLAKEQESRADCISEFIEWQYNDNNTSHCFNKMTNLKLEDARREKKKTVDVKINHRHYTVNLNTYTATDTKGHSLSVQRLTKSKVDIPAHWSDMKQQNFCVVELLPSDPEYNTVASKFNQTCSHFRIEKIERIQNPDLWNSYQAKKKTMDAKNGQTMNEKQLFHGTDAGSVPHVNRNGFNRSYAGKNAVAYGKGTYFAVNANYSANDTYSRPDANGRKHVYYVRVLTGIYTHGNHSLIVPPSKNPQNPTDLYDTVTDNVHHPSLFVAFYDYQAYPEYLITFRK
# PARP-2, sequence (Q9UGN5 whole entry): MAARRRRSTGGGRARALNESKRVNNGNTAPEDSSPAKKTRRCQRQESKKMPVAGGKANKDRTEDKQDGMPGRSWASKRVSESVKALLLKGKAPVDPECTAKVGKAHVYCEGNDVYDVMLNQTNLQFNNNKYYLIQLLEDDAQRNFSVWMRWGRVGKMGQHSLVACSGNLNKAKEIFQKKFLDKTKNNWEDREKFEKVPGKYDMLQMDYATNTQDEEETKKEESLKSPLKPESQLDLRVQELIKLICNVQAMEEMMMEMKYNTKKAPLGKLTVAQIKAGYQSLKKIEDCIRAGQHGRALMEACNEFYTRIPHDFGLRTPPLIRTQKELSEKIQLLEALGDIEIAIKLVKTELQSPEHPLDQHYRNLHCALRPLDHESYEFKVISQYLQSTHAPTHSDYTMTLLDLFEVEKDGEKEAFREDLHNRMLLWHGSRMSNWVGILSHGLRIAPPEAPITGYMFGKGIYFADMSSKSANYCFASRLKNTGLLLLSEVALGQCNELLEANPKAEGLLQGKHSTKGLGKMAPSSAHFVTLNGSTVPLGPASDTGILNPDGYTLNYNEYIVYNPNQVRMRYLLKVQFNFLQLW
molecule,measurement,setting,value
Olaparib [AZD 2281],% of inhibition PARP-2,PARP-2,100%
same,% inhibition PARP-14,PARP-14,less than 20%
"O=c1[nH]c(-c2ccccc2)cc2c1sc1ccccc12 [compound 16, 3-Phenyl[1]benzothieno[2,3-c]pyridin-1(2H)-one]",inhibition at 1 µM,TNKS-1,84%
"Cc1ccc(-c2nc3c(sc4ccccc43)c(=O)[nH]2)cc1 [compound 22, 2-p-Tolyl-3H-benzo[4,5]thieno[3,2-d]pyrimidin-4-one]",inhibition at 1 µM,TNKS-1,98%
"COc1ccc2sc3c(O)nc4ccccc4c3c2c1 [compound 6, 10-Methoxy[l]benzothieno[2,3-c]quinolin-6(5H)-one]",inhibition at 1 µM,TNKS-1,> 70%
same,inhibition at 1 µM,TNKS-2,> 70%
"CC(C)(C)c1ccc(-c2nc3c(sc4ccccc43)c(=O)[nH]2)cc1 [compound 23, 2-(4-tert-Butyl-phenyl)-3H-benzo[4,5]thieno[3,2-d] pyrimidin-4-one]",TCF reporter activity inhibition,[1],comparable fashion to the reference compounds 1 and IWR-1
same,long-term growth inhibition of DLD-1 cells,DLD-1 cancer cells,marked efficacy
same,growth inhibition of Wnt-negative RKO cells,[2],marginal non-specific effects were only detected at concentrations higher than 10 μM
same,inhibition of the other PARPs tested,[3],below 20%
same,TNKS-1 inhibition,TNKS-1; 10 μM,fully inhibited
same,TNKS-2 inhibition,TNKS-2; 10 μM,fully inhibited
"COc1ccc2c(c1)nc(O)c1sc3ccccc3c12 [compound 7, 3-Methoxy[l]benzothieno[2,3-c]quinolin-6(5H)-one]",% of inhibition TNKS-1,TNKS-1,> 70%
same,inhibition at 1 µM,TNKS-2,> 70%
"O=c1[nH]c2cc(O)ccc2c2c1sc1ccccc12 [compound 9, 3-Hydroxy[l]benzothieno[2,3-c]quinolin-6(5H)-one]",inhibition at 1 µM,TNKS-1,≤ 100%
"O=c1[nH]c(-c2ccccc2)nc2c3c(sc12)CCCC3 [compound 19, 2-Phenyl-6,7,8,9-tetrahydro-3H-benzo[4,5]thieno[3,2-d] pyrimidin-4-one]",% of inhibition TNKS-1,TNKS-1,nearly inactive
"O=c1[nH]c2ccccc2c2c1sc1ccc(O)cc12 [compound 8, 10-Hydroxy[l]benzothieno[2,3-c]quinolin-6(5H)-one]",inhibition at 1 µM,TNKS-1,≤ 90%
